We go through 10 compounds from patent US9745280B2, “Compound or pharmaceutically acceptable salt thereof, and pharmaceutical composition containing same as active ingredient” (SNU R&DB FOUNDATION, priority 2012, dated 2017).

Like-named read-outs stand apart in the source and are kept apart here.

Data set [1] has as its system human umbilical vein endothelial cells (HUVECs). The data set can be described thus: Vascular endothelial cell migration, trans-well, conditioned media of hypoxic HCT116. The note with it: cell culture fluid treated at 100 nM; 4 hours. The class given is cell-based. The procedure:
(§1) First, HCT116, the human colorectal cancer cell line, was cultured in a hypoxic chamber (1% O2) as the in vitro hypoxic model. The cells were treated with deguelin, compound 69 (Example 33) and compound 54 (Example 28) at the concentrations of 1˜100 nM, followed by culture for 8 hours. Next, the culture fluid was collected and proceeded to centrifugation at 4° C. for 10 minutes (6,000×g). Cell culture fluid was obtained from the supernatant (conditioned media (CM)). The obtained cell culture fluid was treated to human umbilical vein endothelial cells (HUVECs) which were cultured separately. Then changes of angiogenesis were investigated by the following experiments.
The cell culture fluid obtained in the above preparation stage was loaded in the lower chamber of trans-well plate (6.5 mm diameter filter) and umbilical vein endothelial cells (HUVECs) were plated carefully in the upper chamber, followed by culture at 37° C. for 4 hours. The cells migrated down the filter were confirmed by H&E staining.

In data set [2] the test system is H1299 NSCLC (non-small cell lung cancer) cells. In words: Cancer cell growth inhibition (MTS). The format is cell-based. Conditions: Homo sapiens. The procedure: To investigate the inhibitory effect of the compounds of Examples of the present invention on cancer cell growth, the following experiment was performed. Particularly, H1299 NSCLC (non-small cell lung cancer) cells were distributed in a 96-well plate at the density of 5×10^3 cells/well, followed by culture in a 37° C., 5% CO2 incubator for 24 hours. The compound of each example was dissolved in DMSO (10 nM, 100 nM, 1 μM, 10 μM), which was treated to each well. 48 hours later, cell growth was measured by using MTS reagent (3-(4,5-dimethylthiazole-2-yl)-5-(3-carboxymethoxyphenyl)-2-(4-sulfophenyl)-2H-tetrazolium). The experiment was performed in triplicate and the standard error of the analysis result was corrected.

Data set [3] has as its system human umbilical vein endothelial cells (HUVECs). The data set can be described thus: Vascular endothelial cell tube formation, conditioned media of hypoxic HCT116. The class given is cell-based. Conditions: conditioned media of treated HCT116; 30 hours. The procedure: as §1
Umbilical vein endothelial cells (HUVECs) were treated with the cell culture fluid obtained in the above preparation stage. 30 hours later, tube formation was observed. As a result, tube formation was induced by the control deguelin and the compounds of the present invention.

Data set [4] concerns human bronchial epithelial cells (HBEC-1 and BEAS-2B). The data set can be described thus: Cytotoxicity to normal cells (MTT). The format is cell-based. The note with it: 3 days. The procedure:
To investigate the cytotoxicity of the control deguelin, the compound 69 (Example 33), and the compound 54 (Example 28) to the normal cells, it was examined how these compounds affect the proliferation of human bronchial epithelial cells (HBEC-1 and BEAS-2B).
Particularly, HBEC-1 and BEAS-2B cells were seeded on a 96-well culture plate (5,000 cells/well), followed by culture for 24 hours. The plate was treated with 0.1% DMSO (comparative control (CT)), 1 μM of deguelin (control), or […] of the compound 69 (Example 33) and the compound 54 (Example 28) (experimental group), followed by further culture for 3 days. Cytotoxicity was evaluated by MTT assay.

The next data set deals with HIF-1α. The data set can be described thus: HIF-1α inhibitory activity, hypoxia-response element-luciferase in HRE-A549 cells. The class given is cell-based. The note with it: HRE-A549 cells, hypoxia-chamber 24 h, luciferase activity. The procedure:
HRE-A549 cells stably transfected with hypoxia-response element-luciferase construct were incubated in Dulbecco's modified Eagle's medium. Following overnight serum deprivation, the cells were treated with or without Deguelin or example compounds. After 1 h incubation, the cells were incubated in hypoxia-chamber for 24 h at 37° C. Luciferase activity was measured by adding luciferase assay reagent (Promega, Madison, Wis.).

Data set [5] relates to human umbilical vein endothelial cells (HUVECs). In words: Vascular endothelial cell proliferation, [3H]-thymidine incorporation, conditioned media of hypoxic HCT116. The format is cell-based. Conditions: conditioned media of HCT116 treated at 1˜100 nM under hypoxia; HUVECs 18 hours. The procedure: as §1
The cell culture fluid prepared in the above preparation stage was treated to umbilical vein endothelial cells (HUVECs) for 18 hours. Cell proliferation was confirmed by [^3H]-thymidine incorporation assay.

Data set [6] concerns lung cancer cells with or without anticancer drug resistance. The data set can be described thus: Anchorage-independent (soft agar) colony formation assay. The class given is cell-based. The note with it: 2 weeks. An excerpt:
(§2) H1299, H460, H292, and BEAS-2B cells were purchased from the ATCC. The other NSCLC cells were kindly provided by Dr. John V. Heymach (MD Anderson Cancer Center, Houston, Tex.). HUVECs were purchased from Invitrogen. Human bronchial epithelial (HBE) cells were kindly provided by Dr. John Minna (The University of Texas Southwestern Medical Center, Dallas, Tex.). Human retinal pigment epithelial (RPE) cells were kindly provided by Dr. Jeong Hun Kim (College of Medicine, Seoul National University, Seoul, Republic of Korea). HT-22 cells were provided by Dr. Dong Gyu Jo (College of Pharmacy, Sungkyunkwan University, Suwon, Republic of Korea). Cell lines were authenticated and validated at the Korean Cell Line Bank using AmplFLSTR identifier PCR Amplification Kit (Applied Biosystems; cat. No. 4322288) in 2013. Cells passed for fewer than 6 months after receipt or resuscitation of validated cells were used in this study.
HT-22 and RPE cells were cultured in DMEM supplemented with 10% fetal bovine serum (FBS) and antibiotics. […]
For the anchorage-independent colony formation assay, the cells were mixed with sterile 1% agar solution (final concentration of 0.4%) and then poured onto 1% base agar in 24-well plates. […] After incubation, the colonies were stained with MTT solution and then photographed and counted.

Data set [7] is described as follows: Body weight of treated rats. The class given is in vivo.
A further data set deals with HUVECs. In words: HUVEC tube formation with conditioned medium from treated H1299 cells. The class given is cell-based. Conditions: CM from H1299 cells treated under normoxic or hypoxic conditions. The procedure: H1299 cells were treated with example 28 compound (“SH” in FIG. 13) or deguelin for 1 d and then further incubated under normoxic or hypoxic conditions for 4 h. After incubation, the drug-containing medium was discarded and fresh serum-free medium was added to cell and further incubated for 24 h. After incubation, the conditioned medium (CM) was collected.
Briefly, the HUVECs were diluted in complete medium and seeded onto CellBIND surface 96-well plates (Corning). The cells were treated with the CM. The morphological changes of the HUVECs were photographed and scored.

Data set [8] deals with retinal pigment epithelial cells. The format is cell-based, human. An excerpt:
(§3) We examined toxicity of example 28 compound at the cellular levels by testing the effects of example 28 compound on the viability of several normal cells, including human normal lung epithelial cells (HBE and BEAS-2B; FIG. 14), hippocampal cells (HT-22; FIG. 15), retinal pigment epithelial cells (FIG. 16), and vascular endothelial cells (HUVEC; FIG. 17).

The subject of data set [9] is vascular endothelial cells (HUVEC). The class given is cell-based.
Description: as §3

The test system of data set [10] is hippocampal cells (HT-22). The class given is cell-based.
Description: as §3

The subject of data set [11] is human normal lung epithelial cells (HBE and BEAS-2B). The format is cell-based.
Description: as §3

Data set [12] has as its system lung cancer cells with or without anticancer drug resistance. The data set can be described thus: Anchorage-dependent colony formation assay. The class given is cell-based. Conditions: increasing concentrations, 2 weeks.
Description: as §2
HT-22 and RPE cells were cultured in DMEM supplemented with 10% fetal bovine serum (FBS) and antibiotics. Other cancer cells were cultured in RPMI 1640 medium supplemented with 10% FBS and antibiotics. […]
For the anchorage-dependent colony formation assay, cells were seeded onto 6-well plates at a density of 300 cells/well and then treated with increasing concentrations of example 28 compound (“SH” in FIG. 11) for 2 weeks. […] The colonies were photographed and counted.

The conditions of data set [13]: previous study; decreased tyrosine hydroxylase immunoreactivity; cited from earlier work.
[14] abbreviates: NCI-H1299, 48 hours, MTS reagent.

For `COc1ccc(CC(=O)c2ccc3c(c2OC)C=CC(C)(C)O3)cc1OC` [compound 54, 2-(3,4-Dimethoxyphenyl)-1-(5-methoxy-2,2-dimethyl-2H-chromen-6-yl)ethanone], the “migration of vascular endothelial cells” value in data set [1] is given as “showed the inhibitory effect on the migration of vascular endothelial cells”. In [2] (NCI-H1299, value repeated in text), this compound displayed an IC50 of 140 nM. Besides, the “inhibitory effect on tube formation” value in [3] was “greater than that of the control deguelin”. In data set [4] (human, 1 μM), the cell survival rate result was “approximately 80%”.

Take `COc1cc2c(cc1OC)[C@@H]1C(=O)c3ccc4c(c3O[C@@H]1CO2)C=CC(C)(C)O4` [Comparative Example 1 (Deguelin), (7aS,13aS)-9,10-Dimethoxy-3,3-dimethyl-13,13a-dihydro-3H-chromeno[3,4-b]pyrano[2,3-h]chromen-7(7aH)-one, reference compound]: the half-maximal inhibitory concentration (IC50) in data set [2] (setting [14]) is 110 nM; with HIF-1α, 166 nM.

In the case of `COc1ccc([C@H](C)C(=O)c2ccc3c(c2OC)C=CC(C)(C)O3)cc1OC` [compound 69, (S)-2-(3,4-Dimethoxyphenyl)-1-(5-methoxy-2,2-dimethyl-2H-chromen-6-yl)propan-1-one], in data set [5], the “proliferation of vascular endothelial cells” value was “inhibited the proliferation of vascular endothelial cells dose-dependently”. For the same compound, the “migration of vascular endothelial cells” value in [1] is on record as “showed the inhibitory effect on the migration of vascular endothelial cells”. Further, the “inhibitory effect on tube formation” value in data set [3] is on record as “greater than that of the control deguelin”. The cell survival rate entry in data set [4] (human, 1 μM) was “approximately 80%”.

With `COc1ccc(CC(=O)c2ccc3c(c2OC)C=CC(C)(C)O3)cc1OC` [Example 28, 2-(3,4-Dimethoxyphenyl)-1-(5-methoxy-2,2-dimethyl-2H-chromen-6-yl)ethanone], in data set [6], the anchorage-independent colony formation entry is recorded as “remarkably superior anticancer effect”. In addition, in data set [5], the “proliferation of vascular endothelial cells” value is “inhibited the proliferation of vascular endothelial cells dose-dependently”. Besides, the “body weight of rats” value in [7] (rat, in vivo) is on record as “minimal influence on the body weight of rats”. The “tube formation of HUVECs” value with HUVECs was “formed significantly fewer tubes”. Moreover, the “cytotoxicity compared with deguelin” value in data set [8], in [9], in [10] and in data set [11] was “significantly reduced cytotoxicity” each time. For the same compound, the IC50 in data set [2] (setting [14]) worked out at 140 nM; with HIF-1α, 2150 nM. Moreover, in data set [12], the anchorage-dependent colony formation entry is given as “remarkably superior anticancer effect”.

In the case of `COc1c(C(=O)Cc2ccccc2C(F)(F)F)ccc2c1C=CC(C)(C)O2` [Example 69, 1-(5-methoxy-2,2-dimethyl-2H-chromen-6-yl)-2-(2-(trifluoromethyl)phenyl)ethanone], the IC50 with HIF-1α (read-out: IC50) amounted to 2140 nM.

For the compound `COc1c(C(=O)Cc2ccc(C#N)cc2)ccc2c1C=CC(C)(C)O2` [Example 72, 4-(2-(5-methoxy-2,2-dimethyl-2H-chromen-6-yl)-2-oxoethyl)benzonitrile], the IC50 in the data set with HIF-1α (read-out: IC50) was determined as 1240 nM.

For the compound `COc1c(C(=O)Cc2ccc(Cl)cc2)ccc2c1C=CC(C)(C)O2` [Example 74, 2-(4-chlorophenyl)-1-(5-W methoxy-2,2-dimethyl-2H-chromen-6-yl)ethanone], the IC50 in the data set on HIF-1α (read-out: IC50) is 1270 nM.

With `COc1cc2c(cc1OC)[C@@H]1C(=O)c3ccc4c(c3O[C@@H]1CO2)C=CC(C)(C)O4` [deguelin, Deguelin, reference compound], the “toxicity in the rat brain” value in data set [13] was “caused parkinsonism-like syndrome”. In addition, the “body weight of rats” value in data set [7] (compared with control) is listed as “significantly reduced”. Further, the cell survival rate entry in data set [4] (HBEC-1 and BEAS-2B, 1 μM of deguelin, MTT) is on record as “approximately 60%”.

Regarding `COc1c(C(=O)Cc2ccc3c(c2)OCCO3)ccc2c1C=CC(C)(C)O2` [Example 58, 2-(2,3-dihydrobenzo[b][1,4]dioxin-6-yl)-1-(5-methoxy-2,2-dimethyl-2H-chromen-6-yl)ethanone], the IC50 in the data set with HIF-1α (read-out: IC50) was 1330 nM.

For `COc1c(C(=O)Cc2cccc(Cl)c2)ccc2c1C=CC(C)(C)O2` [Example 68, 2-(3-chlorophenyl)-1-(5-methoxy-2,2-dimethyl-2H-chromen-6-yl)ethanone], the 50% inhibitory concentration (IC50) in the data set on HIF-1α (read-out: IC50) was found to be 611 nM.
